According to ChEMBL document CHEMBL5724558, “Image-based profiling of drug vulnerabilities in CRC organoids” (2024):
Several values for one entry are separate records, joined by “and”; a condition that tells them apart may be missing. Identical values can stand only once.

Legend:
Assay type in all cases: functional, Homo sapiens
Parameters in all cases: dose or concentration left out as unconfirmed
[1] = test system: Colon cancer organoid; assay: (§1) Image-based profiling of donated chemical probes and chemogenomic kinase set in O06 CRC organoid. Image analysis is performed on the sum area metric, and the data were normalized to the DMSO control. After imaging the organoid viability is measured using the OneGloEX Luciferase Assay System. The normalized viability data and sum area are reported.
[2] = test system: Colon cancer organoid; assay: as §1, with “O09” for “O06”
[3] = test system: Colon cancer organoid; assay: as §1, with “O21” for “O06”

| Compound | Cell Viability ([1]; Replication number 1) | Cell Viability ([1]; Replication number 2) | Cell Viability ([2]; Replication number 1) | Cell Viability ([2]; Replication number 2) | Cell Viability ([3]; Replication number 1) | Cell Viability ([3]; Replication number 2) |
| --- | --- | --- | --- | --- | --- | --- |
| O=C(c1ccc(C(=O)N2CCC(N3CCCC3)CC2)c(Nc2ccccc2)c1)N1CCC(N2CCCC2)CC1 | 185.477% and 131.195% | 168.44% and 129.527% | 81.7706% and 92.0402% | 143.807% and 112.037% | 116.035% and 118.746% | 94.3605% and 99.3437% |
| CCN(C(=O)CO)[C@H]1CN(/C(=N\C#N)Nc2cccc(OC(F)F)c2)N=C1c1ccc(Cl)c(Cl)c1 | 122.514% and 121.772% | 131.133% and 123.792% | 95.5807% and 90.881% | 163.22% and 117.738% | 56.7523% and 64.6636% | 98.5958% and 108.473% |
| COc1cc(C(=O)N2CC[C@@H](O)[C@@H](N)C2)cc2nc(-c3cc4ccccc4n3CC3CC3)n(C)c12.Cl | 141.855% and 120.564% | 139.679% and 135.263% | 108.535% and 117.543% | 77.7437% and 99.4932% | 95.6097% and 101.11% | 84.8651% and 86.9928% |
| CNC(=O)c1ccccc1Nc1cc(Nc2ccc(N3CCOCC3)cc2OC)ncc1C(F)(F)F [VS-4718] | 26.6369% and 55.3846% | 24.9671% and 46.6122% | 16.1966% and 32.4497% | 15.3454% and 34.2982% | 46.4172% and 62.2044% | 35.2448% and 60.1632% |
| CN(C)CCOc1ccc(-c2nc(-c3ccncc3)c(-c3ccc4c(c3)CC/C4=N\O)[nH]2)cc1 [SB590885] | 179.76% and 135.095% | 115.548% and 114.756% | 91.6254% and 70.3132% | 62.6087% and 63.1686% | 87.754% and 100.348% | 97.8507% and 97.8769% |
| OCCn1cc(-c2ccc3c(c2)CCC3=NO)c(-c2ccncc2)n1 | 89.1031% and 90.5828% | 141.492% and 108.175% | 111.659% and 102.228% | 89.8993% and 62.6286% | 88.6835% and 115.401% | 96.5689% and 114.574% |
| CN1CCN(Cc2cc(NC(=O)c3ccc4c(c3)CN(c3ccccc3)CC4)cc(C(F)(F)F)c2)CC1 | 104.972% and 109.917% | 87.5694% and 92.1973% | 73.1959% and 82.4072% | 164.971% and 111.856% | 111.963% and 96.9088% | 113.098% and 109.943% |
| N#CN1CC[C@H](C(=O)Nc2nc3c(s2)CN(C(=O)CN=[N+]=[N-])CC3)C1 [8RK64] | 79.1245% and 96.1943% | 91.4374% and 108.602% | 73.5983% and 85.3445% | 74.3628% and 83.6638% | 96.0935% and 89.4871% | 85.4285% and 89.7349% |
| O=C(Nc1cnc(Oc2ccc(F)cc2)nc1)N1CCc2ncccc2[C@@H]1c1ccc(F)cc1 [BAY-899] | 95.5159% and 118.785% | 100.58% and 108.361% | 90.6617% and 101.288% | 105.766% and 101.705% | 121.151% and 99.8545% | 98.3369% and 80.5574% |
| Cc1cc(F)c(C(=O)Nc2cccc(-c3nncn3C(C)C)n2)cc1-n1cnc(C2CC2)c1 [SELONSERTIB] | 102.175% and 96.1469% | 88.4921% and 93.9846% | 115.111% and 84.0268% | 104.846% and 82.0651% | 96.1672% and 86.9686% | 76.8515% and 83.4833% |
| COc1cc(OC)cc(-c2noc(N3CCN(C)C4(CCN(c5ccccc5)CC4)C3)n2)c1 | 202.541% and 143.275% | 168.695% and 116.861% | 101.833% and 98.7635% | 122.499% and 95.7871% | 113.13% and 104.05% | 103.365% and 96.1217% |
